# Results as given in PubChem BioAssay AID2060347 (Molecular Pharmacology Branch, DTP, NCI, 2025).
# System: 817829-284-R-J1-PDC spheroids with HUVEC/MSC, viability
# Assay: Anticancer human tumor 817829-284-R-J1-PDC patient-derived colon adenocarcinoma cell line growth inhibition [TAK]
# Conditions: for IC50: curve of first compound; for viability, T/C: stronger effect = lower value
# In short: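 Drug combinations, each paired with TAK-243 or ipatasertib, were tested on multi-cell spheroids of 60% malignant cells, 25% HUVEC and 15% hMSC. Top concentrations were at or near the clinical Cmax (10 microM if undetermined), decreasing by half-log; viability is given as % test/control.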
# [1] = second compound 0.3 µM, first compound 0.0316 µM
# [2] = second compound 0.3 µM, first compound 0.1 µM
# [3] = second compound 0.3 µM, first compound 0.316 µM
# [4] = second compound 0.3 µM, first compound 1 µM
# [5] = second compound 0.3 µM, first compound 3.16 µM
# [6] = second compound 0.3 µM, first compound 10 µM
# [7] = second compound 0.949 µM, first compound 0.0316 µM
# [8] = second compound 0.949 µM, first compound 0.1 µM
# [9] = second compound 0.949 µM, first compound 0.316 µM
# [10] = second compound 0.949 µM, first compound 1 µM
# [11] = second compound 0.949 µM, first compound 3.16 µM
# [12] = second compound 0.949 µM, first compound 10 µM
# [13] = second compound 3 µM, first compound 0.0316 µM
# [14] = second compound 3 µM, first compound 0.1 µM
# [15] = second compound 3 µM, first compound 0.316 µM
# [16] = second compound 3 µM, first compound 1 µM
# [17] = second compound 3 µM, first compound 3.16 µM
# [18] = second compound 3 µM, first compound 10 µM
# [19] = second compound 9.49 µM, first compound 0.0316 µM
# [20] = second compound 9.49 µM, first compound 0.1 µM
# [21] = second compound 9.49 µM, first compound 0.316 µM
# [22] = second compound 9.49 µM, first compound 1 µM
# [23] = second compound 9.49 µM, first compound 3.16 µM
# [24] = second compound 9.49 µM, first compound 10 µM
# [25] = second compound 30 µM, first compound 0.0316 µM
# [26] = second compound 30 µM, first compound 0.1 µM
# [27] = second compound 30 µM, first compound 0.316 µM
# [28] = second compound 30 µM, first compound 1 µM
# [29] = second compound 30 µM, first compound 3.16 µM
# [30] = second compound 30 µM, first compound 10 µM
# [31] = second compound 0.3 µM, first compound 0.000316 µM
# [32] = second compound 0.3 µM, first compound 0.001 µM
# [33] = second compound 0.3 µM, first compound 0.00316 µM
# [34] = second compound 0.3 µM, first compound 0.01 µM
# [35] = second compound 0.949 µM, first compound 0.000316 µM
# [36] = second compound 0.949 µM, first compound 0.001 µM
# [37] = second compound 0.949 µM, first compound 0.00316 µM
# [38] = second compound 0.949 µM, first compound 0.01 µM
# [39] = second compound 3 µM, first compound 0.000316 µM
# [40] = second compound 3 µM, first compound 0.001 µM
# [41] = second compound 3 µM, first compound 0.00316 µM
# [42] = second compound 3 µM, first compound 0.01 µM
# [43] = second compound 9.49 µM, first compound 0.000316 µM
# [44] = second compound 9.49 µM, first compound 0.001 µM
# [45] = second compound 9.49 µM, first compound 0.00316 µM
# [46] = second compound 9.49 µM, first compound 0.01 µM
# [47] = second compound 30 µM, first compound 0.000316 µM
# [48] = second compound 30 µM, first compound 0.001 µM
# [49] = second compound 30 µM, first compound 0.00316 µM
# [50] = second compound 30 µM, first compound 0.01 µM
smiles,measurement,setting,value
CC(C)(C)c1nc(-c2cccc(NS(=O)(=O)c3c(F)cccc3F)c2F)c(-c2ccnc(N)n2)s1 + CC(C)NCC(C(=O)N1CCN(c2ncnc3c2C(C)CC3O)CC1)c1ccc(Cl)cc1,IC50,second compound 0.3 µM,110 nM
same,IC50,second compound 0.949 µM,< 31.6 nM
same,IC50,second compound 3 µM,< 31.6 nM
same,IC50,second compound 9.49 µM,< 31.6 nM
same,IC50,second compound 30 µM,< 31.6 nM
same,"viability, T/C",[1],77.1%
same,"viability, T/C",[2],52.1%
same,"viability, T/C",[3],27.6%
same,"viability, T/C",[4],18%
same,"viability, T/C",[5],20%
same,"viability, T/C",[6],40.6%
same,"viability, T/C",[7],27.6%
same,"viability, T/C",[8],31.9%
same,"viability, T/C",[9],22.4%
same,"viability, T/C",[10],15.3%
same,"viability, T/C",[11],15.6%
same,"viability, T/C",[12],20.1%
same,"viability, T/C",[13],15.9%
same,"viability, T/C",[14],16.9%
same,"viability, T/C",[15],13.4%
same,"viability, T/C",[16],11.1%
same,"viability, T/C",[17],11%
same,"viability, T/C",[18],13.7%
same,"viability, T/C",[19],9.35%
same,"viability, T/C",[20],10.3%
same,"viability, T/C",[21],9.8%
same,"viability, T/C",[22],7.09%
same,"viability, T/C",[23],6.36%
same,"viability, T/C",[24],9.46%
same,"viability, T/C",[25],5.5%
same,"viability, T/C",[26],5.14%
same,"viability, T/C",[27],5.38%
same,"viability, T/C",[28],3.29%
same,"viability, T/C",[29],3.24%
same,"viability, T/C",[30],4.85%
CC(C)CC(NC(=O)CNC(=O)c1cc(Cl)ccc1Cl)B1OC(=O)CC(CC(=O)O)(C(=O)O)O1 (stereo not given) + CC(C)NCC(C(=O)N1CCN(c2ncnc3c2C(C)CC3O)CC1)c1ccc(Cl)cc1,IC50,second compound 0.3 µM,15.9 nM
same,IC50,second compound 0.949 µM,< 0.316 nM
same,IC50,second compound 3 µM,< 0.316 nM
same,IC50,second compound 9.49 µM,< 0.316 nM
same,IC50,second compound 30 µM,< 0.316 nM
same,"viability, T/C",[31],103%
same,"viability, T/C",[32],93.4%
same,"viability, T/C",[33],82.4%
same,"viability, T/C",[34],81%
same,"viability, T/C",[1],4.01%
same,"viability, T/C",[2],0.25%
same,"viability, T/C",[35],33.5%
same,"viability, T/C",[36],22.1%
same,"viability, T/C",[37],30.2%
same,"viability, T/C",[38],25%
same,"viability, T/C",[7],0.36%
same,"viability, T/C",[8],0.13%
same,"viability, T/C",[39],10.5%
same,"viability, T/C",[40],10%
same,"viability, T/C",[41],10.2%
same,"viability, T/C",[42],10.8%
same,"viability, T/C",[13],0.42%
same,"viability, T/C",[14],0.12%
same,"viability, T/C",[43],5.98%
same,"viability, T/C",[44],6.67%
same,"viability, T/C",[45],6.96%
same,"viability, T/C",[46],6.39%
same,"viability, T/C",[19],0.53%
same,"viability, T/C",[20],0.12%
same,"viability, T/C",[47],5.15%
same,"viability, T/C",[48],4.38%
same,"viability, T/C",[49],4.75%
same,"viability, T/C",[50],4.63%
same,"viability, T/C",[25],0.23%
same,"viability, T/C",[26],0.32%
CC(C)n1nc(-c2ccc3oc(N)nc3c2)c2c(N)ncnc21 + CC(C)NCC(C(=O)N1CCN(c2ncnc3c2C(C)CC3O)CC1)c1ccc(Cl)cc1,IC50,second compound 0.3 µM,15 nM
same,IC50,second compound 0.949 µM,1.51 nM
same,IC50,second compound 3 µM,< 0.316 nM
same,IC50,second compound 9.49 µM,< 0.316 nM
same,IC50,second compound 30 µM,< 0.316 nM
same,"viability, T/C",[31],95.8%
same,"viability, T/C",[32],97.5%
same,"viability, T/C",[33],81.4%
same,"viability, T/C",[34],62.4%
same,"viability, T/C",[1],29.9%
same,"viability, T/C",[2],18%
same,"viability, T/C",[35],62%
same,"viability, T/C",[36],63.8%
same,"viability, T/C",[37],26.7%
same,"viability, T/C",[38],20.4%
same,"viability, T/C",[7],14.1%
same,"viability, T/C",[8],9.37%
same,"viability, T/C",[39],17.9%
same,"viability, T/C",[40],22.1%
same,"viability, T/C",[41],14.9%
same,"viability, T/C",[42],10.1%
same,"viability, T/C",[13],9.06%
same,"viability, T/C",[14],7.73%
same,"viability, T/C",[43],9.8%
same,"viability, T/C",[44],12.5%
same,"viability, T/C",[45],7.29%
same,"viability, T/C",[46],7.54%
same,"viability, T/C",[19],4.98%
same,"viability, T/C",[20],4.87%
same,"viability, T/C",[47],6.54%
same,"viability, T/C",[48],6.66%
same,"viability, T/C",[49],5.92%
same,"viability, T/C",[50],3.93%
same,"viability, T/C",[25],3.59%
same,"viability, T/C",[26],3.29%
CCCS(=O)(=O)Nc1ccc(F)c(C(=O)c2c[nH]c3ncc(-c4ccc(Cl)cc4)cc23)c1F + CC(C)NCC(C(=O)N1CCN(c2ncnc3c2C(C)CC3O)CC1)c1ccc(Cl)cc1,IC50,second compound 0.3 µM,1900 nM
same,IC50,second compound 0.949 µM,< 316 nM
same,IC50,second compound 3 µM,< 316 nM
same,IC50,second compound 9.49 µM,< 316 nM
same,IC50,second compound 30 µM,< 316 nM
same,"viability, T/C",[3],78.3%
same,"viability, T/C",[4],66.9%
same,"viability, T/C",[5],38%
same,"viability, T/C",[6],12.7%
same,"viability, T/C","second compound 0.3 µM, first compound 31.6 µM",20%
same,"viability, T/C","second compound 0.3 µM, first compound 100 µM",46.3%
same,"viability, T/C",[9],29.6%
same,"viability, T/C",[10],26.4%
same,"viability, T/C",[11],20.5%
same,"viability, T/C",[12],10.8%
same,"viability, T/C","second compound 0.949 µM, first compound 31.6 µM",5.67%
same,"viability, T/C","second compound 0.949 µM, first compound 100 µM",17.3%
same,"viability, T/C",[15],18.5%
same,"viability, T/C",[16],14.3%
same,"viability, T/C",[17],11.6%
same,"viability, T/C",[18],4.96%
same,"viability, T/C","second compound 3 µM, first compound 31.6 µM",1.71%
same,"viability, T/C","second compound 3 µM, first compound 100 µM",12.3%
same,"viability, T/C",[21],9.5%
same,"viability, T/C",[22],7.83%
same,"viability, T/C",[23],7.41%
same,"viability, T/C",[24],2.4%
same,"viability, T/C","second compound 9.49 µM, first compound 31.6 µM",0.86%
same,"viability, T/C","second compound 9.49 µM, first compound 100 µM",7.59%
same,"viability, T/C",[27],5.18%
same,"viability, T/C",[28],5.41%
same,"viability, T/C",[29],2.16%
same,"viability, T/C",[30],0.51%
same,"viability, T/C","second compound 30 µM, first compound 31.6 µM",0.2%
same,"viability, T/C","second compound 30 µM, first compound 100 µM",1.89%
